Experimental data from patent US11466016B2, “Pharmaceutical compounds” (priority 2018, dated 2022).
Where a name gives a salt, the structure may show the parent alone.

target: SHP2 (Homo sapiens (Human), UniProt Q06124); assay: SHP2 Biochemical Assay (DiFMUP conversion, pIRS1 activating peptide); settings: not given
Protocol: SHP2 activity was monitored by measuring the conversion of the surrogate substrate 6,8-difluoromethylumbelliferyl phosphate (DiFMUP) to the fluorescent product, 6,8-difluoromethylumbelliferone (DiFMU).
SHP2 was pre-incubated with test compounds and the activating peptide pIRS1 (H2N-LN(pY)IDLDLV-(PEG)8-LST(pY)ASINFQK-amide) for 30 min, prior to addition of the […] (DiFMUP), (Thermo Fisher D6567). […] Rates of reaction were then measured over 30 min by monitoring fluorescence on a BMG Pherastar reader at excitation 360 nm/emission 450 nm. IC50 values were calculated from the normalized dose-response plots using four parameter logistic curve fit.

SHP2, sequence (Q06124 whole entry): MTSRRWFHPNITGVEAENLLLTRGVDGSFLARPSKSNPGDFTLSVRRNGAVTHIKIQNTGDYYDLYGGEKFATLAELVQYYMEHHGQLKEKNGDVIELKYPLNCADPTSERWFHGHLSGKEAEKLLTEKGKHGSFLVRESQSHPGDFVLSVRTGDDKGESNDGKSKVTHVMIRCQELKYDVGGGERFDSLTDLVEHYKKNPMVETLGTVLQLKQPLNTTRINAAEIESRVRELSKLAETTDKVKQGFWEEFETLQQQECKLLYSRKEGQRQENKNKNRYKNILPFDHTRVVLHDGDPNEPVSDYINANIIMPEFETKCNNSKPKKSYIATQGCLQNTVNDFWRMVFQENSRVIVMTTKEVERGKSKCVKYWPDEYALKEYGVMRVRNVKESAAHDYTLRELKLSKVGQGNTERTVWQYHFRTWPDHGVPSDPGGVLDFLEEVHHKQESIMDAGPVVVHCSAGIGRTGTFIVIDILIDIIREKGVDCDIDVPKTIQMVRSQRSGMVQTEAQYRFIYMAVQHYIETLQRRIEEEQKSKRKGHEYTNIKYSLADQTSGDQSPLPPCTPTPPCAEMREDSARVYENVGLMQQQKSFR

| SMILES | IC50 [µM] | SHP2 (percent at stated concentration) [%@0.30 uM] |
| --- | --- | --- |
| Cn1ccnc1Cn1cc2c(Cl)c(-c3c[nH]c4nc(N5[C@@H]6CC[C@H]5C[C@@H](N)C6)cnc34)ccc2n1 [Example 68, endo-8-(7-{4-chloro-2-[(1-methyl-1H-imidazol-2-yl)methyl]-2H-indazol-5-yl}-5H-pyrrolo[2,3-b]pyrazin-3-yl)-8-azabicyclo[3.2.1]octan-3-amine, trihydrochloride salt] | 0.021 | – |
| Cc1noc(Cn2cc3c(Cl)c(-c4c[nH]c5nc(N6[C@@H]7CC[C@H]6C[C@@H](N)C7)cnc45)ccc3n2)n1 [Example 69, endo-8-(7-{4-chloro-2-[(3-methyl-1,2,4-oxadiazol-5-yl)methyl]-2H-indazol-5-yl}-5H-pyrrolo[2,3-b]pyrazin-3-yl)-8-azabicyclo[3.2.1]octan-3-amine, hydrochloride salt] | 0.0068 | – |
| CN1Cc2c(ccc(-c3c[nH]c4nc(N5CC[C@H](N)[C@H](F)C5)cnc34)c2Cl)C1=O [Example 72, 5-{3-[(3R,4S)-4-amino-3-fluoropiperidin-1-yl]-5H-pyrrolo[2,3-b]pyrazin-7-yl}-4-chloro-2-methyl-2,3-dihydro-1H-isoindol-1-one, hydrochloride salt] | – | 50 |

same assay, conditions: DiFMUP substrate, 0.25 μM pIRS1 peptide, 30 min pre-incubation; average where more than one data point; read-out: SHP2 (IC50)

| SMILES | IC50 [µM] |
| --- | --- |
| CC(C)(O)Cn1cc2c(Cl)c(-c3c[nH]c4nc(N5[C@@H]6CC[C@H]5C[C@@H](N)C6)cnc34)ccc2n1 [Example 53, 1-(5-{3-[endo-3-amino-8-azabicyclo[3.2.1]octan-8-yl]-5H-pyrrolo[2,3-b]pyrazin-7-yl}-4-chloro-2H-indazol-2-yl)-2-methylpropan-2-ol] | 0.029 |
| N[C@H]1C[C@H]2CC[C@@H](C1)N2c1cnc2c(-c3ccc4[nH]nc(Cl)c4c3Cl)c[nH]c2n1 [Example 54, endo-8-[7-(3,4-dichloro-1H-indazol-5-yl)-5H-pyrrolo[2,3-b]pyrazin-3-yl]-8-azabicyclo[3.2.1]octan-3-amine] | 0.01 |
| Cc1cc(-c2c[nH]c3nc(N4[C@@H]5CC[C@H]4C[C@@H](N)C5)cnc23)c(Cl)c2cn(C)nc12 [Example 55, endo-8-[7-(4-chloro-2,7-dimethyl-2H-indazol-5-yl)-5H-pyrrolo[2,3-b]pyrazin-3-yl]-8-azabicyclo[3.2.1]octan-3-amine] | 0.022 |
| Cn1cnc2ccc(-c3c[nH]c4nc(N5[C@@H]6CC[C@H]5C[C@@H](N)C6)cnc34)c(Cl)c2c1=O [Example 56, 6-{3-[endo-3-amino-8-azabicyclo[3.2.1]octan-8-yl]-5H-pyrrolo[2,3-b]pyrazin-7-yl}-5-chloro-3-methyl-3,4-dihydroquinazolin-4-one, hydrochloride salt] | 0.021 |
| CNC(=O)Cn1cc2c(Cl)c(-c3c[nH]c4nc(N5[C@@H]6CC[C@H]5C[C@@H](N)C6)cnc34)ccc2n1 [Example 57, 2-(5-{3-[endo-3-amino-8-azabicyclo[3.2.1]octan-8-yl]-5H-pyrrolo[2,3-b]pyrazin-7-yl}-4-chloro-2H-indazol-2-yl)-N-methylacetamide] | 0.023 |
| CN(C)C(=O)c1nc2ccc(-c3c[nH]c4nc(N5[C@@H]6CC[C@H]5C[C@@H](N)C6)cnc34)c(Cl)c2s1 [Example 59, 6-{3-[endo-3-amino-8-azabicyclo[3.2.1]octan-8-yl]-5H-pyrrolo[2,3-b]pyrazin-7-yl}-7-chloro-N,N-dimethyl-1,3-benzothiazole-2-carboxamide, hydrochloride salt] | 0.018 |
| CC(C)(C)NC(=O)Cn1cc2c(Cl)c(-c3c[nH]c4nc(N5[C@@H]6CC[C@H]5C[C@@H](N)C6)cnc34)ccc2n1 [Example 60, 2-(5-{3-[endo-3-amino-8-azabicyclo[3.2.1]octan-8-yl]-5H-pyrrolo[2,3-b]pyrazin-7-yl}-4-chloro-2H-indazol-2-yl)-N-tert-butylacetamide] | 0.012 |
| Cn1nc2ccc(-c3c[nH]c4nc(N5[C@@H]6CC[C@H]5C[C@@H](N)C6)cnc34)c(Cl)c2c1CC#N [Example 61, 2-(5-{3-[endo-3-amino-8-azabicyclo[3.2.1]octan-8-yl]-5H-pyrrolo[2,3-b]pyrazin-7-yl}-4-chloro-2-methyl-2H-indazol-3-yl)acetonitrile] | 0.13 |
| Cn1nc2ccc(-c3c[nH]c4nc(N5[C@@H]6CC[C@H]5C[C@@H](N)C6)cnc34)c(Cl)c2c1C#N [Example 62, 5-{3-[endo-3-amino-8-azabicyclo[3.2.1]octan-8-yl]-5H-pyrrolo[2,3-b]pyrazin-7-yl}-4-chloro-2-methyl-2H-indazole-3-carbonitrile] | 0.0071 |
| Cn1cc2c(Cl)c(-c3c[nH]c4nc(N5[C@H]6CC[C@@H]5[C@@H](F)[C@@H](N)C6)cnc34)ccc2n1 [Example 64, (1R,2S,3S,5S)-8-[7-(4-chloro-2-methyl-2H-indazol-5-yl)-5H-pyrrolo[2,3-b]pyrazin-3-yl]-2-fluoro-8-azabicyclo[3.2.1]octan-3-amine] | 0.0077 |
| Cn1cc2c(Cl)c(-c3c[nH]c4nc(N5[C@@H]6CC[C@H]5[C@H](F)[C@@H](N)C6)cnc34)ccc2n1 [Example 65, (1S,2R,3S,5R)-8-[7-(4-chloro-2-methyl-2H-indazol-5-yl)-5H-pyrrolo[2,3-b]pyrazin-3-yl]-2-fluoro-8-azabicyclo[3.2.1]octan-3-amine] | 0.037 |
| N[C@H]1C[C@H]2CC[C@@H](C1)N2c1cnc2c(-c3ccc4c(c3Cl)C(F)(F)C(=O)N4)c[nH]c2n1 [Example 66, 5-{3-[endo-3-amino-8-azabicyclo[3.2.1]octan-8-yl]-5H-pyrrolo[2,3-b]pyrazin-7-yl}-4-chloro-3,3-difluoro-2,3-dihydro-1H-indol-2-one, dihydrochloride salt] | 0.0044 |
| Cn1cc2c(Cl)c(-c3c[nH]c4nc(N5[C@H]6CC[C@@H]5[C@@H](F)[C@H](N)C6)cnc34)ccc2n1 [Example 67, (1R,2S,3R,5S)-8-[7-(4-chloro-2-methyl-2H-indazol-5-yl)-5H-pyrrolo[2,3-b]pyrazin-3-yl]-2-fluoro-8-azabicyclo[3.2.1]octan-3-amine] | 0.057 |
| Cn1ccc(Cn2cc3c(Cl)c(-c4c[nH]c5nc(N6[C@@H]7CC[C@H]6C[C@@H](N)C7)cnc45)ccc3n2)n1 [Example 70, endo-8-(7-{4-chloro-2-[(1-methyl-1H-pyrazol-3-yl)methyl]-2H-indazol-5-yl}-5H-pyrrolo[2,3-b]pyrazin-3-yl)-8-azabicyclo[3.2.1]octan-3-amine, trihydrochloride salt] | 0.0088 |
| Cn1ccc2c(Cl)c(-c3c[nH]c4nc(N5CC[C@H](N)[C@H](F)C5)cnc34)ccc2c1=O [Example 71, 6-{3-[(3R,4S)-4-amino-3-fluoropiperidin-1-yl]-5H-pyrrolo[2,3-b]pyrazin-7-yl}-5-chloro-2-methyl-1,2-dihydroisoquinolin-1-one, hydrochloride salt] | 0.055 |
| Cc1nc2c(-c3ccc4nn(C)cc4c3Cl)n[nH]c2nc1N1[C@H]2CC[C@@H]1[C@@H](F)[C@@H](N)C2 [Example 73, (1R,2S,3S,5S)-8-[3-(4-chloro-2-methyl-2H-indazol-5-yl)-5-methyl-1H-pyrazolo[3,4-b]pyrazin-6-yl]-2-fluoro-8-azabicyclo[3.2.1]octan-3-amine, hydrochloride salt] | 0.0098 |
| Cn1cnc2ccc(-c3c[nH]c4nc(N5CC[C@H](N)[C@H](F)C5)cnc34)c(Cl)c21 [Example 74, (3R,4S)-1-[7-(7-chloro-1-methyl-1H-1,3-benzodiazol-6-yl)-5H-pyrrolo[2,3-b]pyrazin-3-yl]-3-fluoropiperidin-4-amine] | 0.089 |
